Assay results as given in US9962341B2, “Active pharmaceutical ingredient (API) comprising cannabinoids for use in the treatment of cancer” (GW Pharma Limited, priority 2014, dated 2018).
Like-named read-outs stand apart in the source and are kept apart here.

Tests used:
Format in all cases: cell-based
ACHN = assay: Cell viability (CellTiter-Blue, 72 h), ACHN renal cancer cells; conditions: Homo sapiens
Method: (§1) The following cell lines were tested in this example: Lung Cancer (A549, NCI-H460); Pancreatic cancer (PANC1, Mia-Pa-Ca-2); Melanoma (WM115, A375); Ovarian cancer (OVCAR3, SKOV3); Gastric cancer (MKN45, HGC-27); Renal cancer (ACHN) and Bladder Cancer (RT112).
(§2) Each tumour cell line was maintained in vitro in RPMI 1640+10% heat inactivated FBS and 2 mM L-glutamine (growth media) at 37° C. in 5% CO2 and humidified conditions. The cells were harvested, washed, re-suspended into growth medium and counted. The cells were re-suspended into assay media (RPMI 1640+5% heat inactivated FBS+ and 2 mM L-glutamine) at 4×10^4 cells/ml (dependent upon cell type) and plated into the middle 240 wells of 384 well tissue culture plates (Corning CellBind, black-wall plates) 25 μl/well aliquots; 50 μl of growth media was aliquoted into the outer wells. There were 3 plates for each cell line.
(§3) The plates were incubated overnight at 37° C., in 5% humidified CO2.
(§4) The phytocannabinoid test compounds were prepared in 100% DMSO vehicle at a stock concentration of 20 and 40 mM.
(§5) Starting with the 20 mM stock in DMSO, this was serially diluted (2 fold) in DMSO in a 96-well plate, to 20 (no dilution), 10, 5, 2.5, 1.25, 0.625, 0.315, 0.157 and […]. Following this, 10 ul of each compound dilution was diluted into 990 ul of 1% (v/v) FBS media in a deep well block making the final concentrations of 200, 100, 50, 25, 12.5, 6.25, 3.125, 1.56 and 0.79 μM (2× final assay concentrations and 1% DMSO).
(§6) An equal volume of each cannabinoid in the combination (stock concentration 40 mM) was mixed together to make a stock of 20 mM of each cannabinoid in DMSO. This was serially diluted (2 fold) in DMSO in a 96-well plate, to 20 (no dilution), 10, 5, 2.5, 1.25, 0.625, 0.315, 0.157 and […]. Following this, 10 ul of each combination dilution was diluted into 990 ul of 1% (v/v) FBS media in a deep well block making the final concentrations of 200, 100, 50, 25, 12.5, 6.25, 3.125, 1.56 and 0.79 μM (2× final assay concentrations and 1% DMSO).
Taxotere SOC was prepared in 100% DMSO to give a stock concentration of 10 mM. This was diluted in DMSO from the stock solution to 200 μM, then serially diluted (3-fold) in DMSO to 200 (no dilution), 66.66, 22.22, 7.41, 2.47, 0.82, 0.27, 0.09, 0.03 μM. 10 ul of each of the taxotere dilutions was diluted in 990 ul of 1% (v/v) FBS media making the final concentrations of 2, 0.67, 0.22, 0.074, 0.0247, 0.0082, 0.0027 0.0009, 0.0003 μM (2× final assay concentrations and 1% DMSO).
(§7) The plates were incubated for 72 h at 37° C. in 5% humidified CO2. To develop the plates, at 72 h, 10 μl of CellTiter-Blue™ reagent was added to each test/blank well.
(§8) The plates were incubated at 37° C., 5% humidified CO2. Fluorescence was measured using a Flex II Station plate reader (570 nm excitation wavelength, 600 nm emission wavelength, 590 nm cut-off) after 3 h.
(§9) The phytocannabinoid compounds CBD, CBGA, CBG, CBDA, THCV and THC were tested on a panel of lung (A549, NCI-H460), pancreatic (PANC1, Mia-Pa-Ca-2), melanoma (WM115, A375), ovarian (OVCAR3, SKOV3), gastric (MKN45, HGC-27), renal (ACHN) and bladder (RT112) cancer cell lines according to the protocol for 72 h in media containing 1% FBS.
(§10) The IC50 values for each phytocannabinoid and combination of CBD with the other phytocannabinoids was calculated for each cell line. The raw data values expressed in relative fluorescent units were normalised to the vehicle for each individual plate and any reduction in fluorescence indicated a decrease in viability.
(§11) This calculation was as described in Example 1 above.

RT112 = assay: Cell viability (CellTiter-Blue, 72 h), RT112 bladder cancer cells; conditions: Homo sapiens, RT-112
Method: as §1, §2, §3, §4, §5, §6
(§12) Cisplatin (stock of 1 mg/ml=3.33 mM in water) was diluted in 1% FBS media to give a stock concentration of 1 mM. This was then diluted in 1% FBS media from the stock solution to 200 μM, then serially diluted (3-fold) in 1% FBS media to 200 (no dilution), 66.66, 22.22, 7.41, 2.47, 0.82, 0.27, 0.09, 0.03 μM (2× final assay concentrations; no DMSO).
as §7, §8, §9, §10, §11

PANC-1 = assay: Cell viability (CellTiter-Blue, 72 h), PANC-1 pancreatic cancer cells; conditions: Homo sapiens, PANC-1, 1% FBS
Method: as §1, §2, §3, §4, §5, §6
Gemcitabine SOC was prepared in 100% DMSO to give a stock concentration of 20 mM. This was then serially diluted (3 fold) in DMSO in a 96-well plate, to 20 (no dilution), 6.6, 2.2, 0.741, 0.247, 0.082, 0.027, 0.009 and 0.003 mM. Following this, 10 ul of each dilution was further diluted into 990 ul of 1% (v/v) FBS media making the final concentrations of 200 (no dilution), 66.66, 22.22, 7.41, 2.47, 0.82, 0.27, 0.09, 0.03 μM (2× final assay concentrations and 1% DMSO).
as §7, §8, §9, §10, §11

SKOV3 = assay: Cell viability (CellTiter-Blue, 72 h), SKOV3 ovarian cancer cells; conditions: Homo sapiens, SK-OV-3
Method: as §1, §2, §3, §4, §5, §6, §12, §7, §8, §9, §10, §11

[1] = 72 h, read-out: Cell line IC50 value
[2] = read-out: Dm (potency, median effect)
[3] = RT112, 1% FBS, 72 h, read-out: Cell line IC50 value
[4] = RT112 cells, 1% FBS, read-out: Dm (potency, median effect)
[5] = read-out: Dm (median effect dose)
[6] = SKOV3, 1% FBS, 72 h, read-out: Cell line IC50 value
[7] = SKOV3 cells, 1% FBS, read-out: Dm (potency, median effect)

Row | SMILES | IC50 (ACHN; [1]) [µM] | IC50 (ACHN; [2]) [µM] | IC50 (RT112; [3]) [µM] | IC50 (RT112; [4]) [µM] | IC50 (PANC-1; [1]) [µM] | IC50 (PANC-1; [5]) [µM] | IC50 (SKOV3; [6]) [µM] | IC50 (SKOV3; [7]) [µM]
1 | CC(=O)O[C@@]12CO[C@@H]1C[C@H](O)[C@@]1(C)C(=O)[C@H](O)C3=C(C)[C@@H](OC(=O)[C@H](O)[C@@H](NC(=O)OC(C)(C)C)c4ccccc4)C[C@@](O)([C@@H](OC(=O)c4ccccc4)[C@H]21)C3(C)C [Taxotere, Docetaxel, reference compound] | 0.0018 |  |  |  |  |  |  | 
2 | CCCc1cc(O)c2c(c1)OC(C)(C)[C@@H]1CCC(C)=C[C@@H]21 [THCV, Tetrahydrocannabivarin] | 6.8 | 6.76 | 4.7 | 4.75 | 6.5 | 6.46 | 6.5 | 6.58
3 | CCCCCc1cc(O)c(C/C=C(\C)CCC=C(C)C)c(O)c1C(=O)O [CBGA, Cannabigerolic acid] | 11.6 | 12 | 9.8 | 9.72 | 8.5 | 8.82 | 7.9 | 8.64
4 | C=C(C)[C@@H]1CCC(C)=C[C@H]1c1c(O)cc(CCCCC)c(C(=O)O)c1O [CBDA, Cannabidiolic acid] | 10.7 | 8.44 | 8.2 | 6.36 | 13.1 | 12.6 | 1.3 | 10.6
5 | CCCCCc1cc(O)c2c(c1)OC(C)(C)[C@@H]1CCC(C)=C[C@@H]21 [THC, Tetrahydrocannabinol, reference compound] | 3.6 | 4.4 | 3.6 | 3.09 | 3 | 3.15 | 5.3 | 4.56
6 | C=C(C)[C@@H]1CCC(C)=C[C@H]1c1c(O)cc(CCCCC)cc1O [CBD, Cannabidiol] | 3.3 | 3.11 | 2 | 1.79 | 3 | 2.92 | 3.1 | 3.17
7 | CCCCCc1cc(O)c(C/C=C(\C)CCC=C(C)C)c(O)c1 [CBG, Cannabigerol] | 3 | 2.96 | 2.5 | 2.14 | 3.1 | 2.88 | 5.5 | 4.75
